Assay [1] deals with ATP-binding proteins in HEK 293T cell lysates. In words: In-gel fluorescence imaging of HEK 293T cell lysates labeled with the ATP-N probe. To be noted: 10 μM ATP-N probe, FIG. 23c.
Assay [2] has as its system GTP-binding proteins in HEK 293T cell lysates. Kind of assay: In-gel fluorescence imaging of HEK 293T cell lysate labeled with the GTP probes. To be noted: competitor incubated on ice 10 minutes before probe; 50 μM GTP-O probe (FIG. 11). As to the method:
Appropriate amount cells were incubated on ice for 30 min in 1% lysis buffer (1% Triton X-100, 50 mM HEPES (pH 7.4), 150 mM NaCl, supplemented with phosphatase inhibitor A, phosphatase inhibitor B, and protease inhibitor right before use) at 5-10 times the cell volume. Vortexing for 5 seconds every 10 minutes. The cell lysates were centrifuged at 12,000 rpm at 4° C. for 30 min, and the supernatants were passed through an Amersham NAP-5 column to remove endogenous nucleosides. The proteins were quantified using a Bradford protein assay kit. Approximately 100 μg protein was diluted with 0.1% lysis buffer (0.1% Triton X-100, 50 mM HEPES, 150 mM sodium chloride). To the solution was added 1 mM magnesium chloride, the GTP probe and competitors to designated concentrations. The final volume for the reaction was 100 μL and the final protein concentration was […]. After incubated on ice, the solution was irradiated with 365-nm UV light for 30 min. To the solution were added freshly prepared tris-(2-carboxyethyl)phosphine (TCEP) until its concentration reached 1 mM, and a CuAAC reaction mixture to reach a final concentration of 1 mM CuSO4, 0.1 mM tris[(1-benzyl-1H-1,2,3-triazol-4-yl)methyl]amine (TBTA), and 0.1 mM rhodamine β-PEG3-azide. The mixture was incubated at room temperature for 2 hrs and then precipitated in a solution of chloroform: methanol: water (4:3:1, v/v). After washing with cold methanol and air dried, the protein pellet was dissolved in 30 μL 4% SDS buffer (4% SDS, 50 mM HEPES (pH 7.4), 150 mM NaCl, 50 mM Trolamine). The protein concentration was determined using a BCA protein assay kit. A solution of approximately 20 μg proteins was added 4×loading buffer (0.25M Trometamol, pH=6.8, 4% SDS, 40% Glycerol, 0.02% bromophenol blue, add 200 μL 2-Mercaptoethanol to 800 μL buffer right before use), boiled at 95° C. for 5 min and loaded onto an SDS-PAGE gel (4% stacking gel, 10% separating gel). Then perform SDS-PAGE separation at a constant voltage of 90 V for about 110 minutes. At the end of electrophoresis, cut the separation gel and imaged with an Amersham Imager 600 (GE Healthcare) at 520 nm. The gel was then stained with Coomassie Brilliant Blue staining solution (0.1% Coomassie brilliant blue, 10% acetic acid, 50% methanol) for 30 min and destained with destaining solution (10% acetic acid, 30% methanol) to remove background color.

Assay [3] shares this test system. Kind of assay: Proteomic LC-MS/MS analysis of HEK 293T cell lysate labeled with GTP probes. Also on record: species or system human. As for the experimental part: Under optimized conditions, HEK 293T cell lysates were labeled using the GTP photoaffinity probes. Peptide samples were prepared via the On-Beads enzymatic digestion method for proteomic study. Approximately 1 mg of proteins was labeled with 0.1 mM GTP probe and irradiated with 365-nm UV light for 30 min. To the solution were added freshly prepared tris-(2-carboxyethyl)phosphine (TCEP) until its concentration reached 1 mM, and a CuAAC reaction mixture to reach a final concentration of 1 mM CuSO4, 0.1 mM tris[(1-benzyl-1H-1,2,3-triazol-4-yl)methyl]amine (TBTA), and 0.5 mM biotin-PEG3-azide (for GTP-O probe labeled samples), or 0.5 mM biotin-DADPS-azide (for GTP-N probe labeled samples). The mixture was vortexed at room temperature for 2 hours and then precipitated in ice-cold methanol overnight.
The precipitated proteins were dissolved in 100 μL 4% SDS buffer (4% SDS, 150 mM NaCl, 50 mM HEPES, pH=7.4), and diluted with 900 μL SDS-free HEPES buffer (150 mM NaCl, 50 mM HEPES, pH=7.4). High-capacity streptavidin beads (50 μL per sample) were washed three times with 20 times volume of wash buffer (150 mM sodium chloride, 50 mM HEPES, pH=7.4) before adding to the samples. After incubation on a rotary shaker at room temperature for 2 hours, non-specifically bound proteins were washed away in a centrifugal filtration column using 1× PBS containing 1% SDS, 10× PBS, 1× PBS, water, and 50 mM ammonium bicarbonate solution with 8 M urea, each wash using 1 mL of solution for five times. The beads were transferred to a centrifuge tube using 50 mM ammonium bicarbonate solution containing 8 M urea and resuspended with 500 μL of this solution. The disulfide bonds were reduced by adding 20 mM TCEP and incubating at 37° C. for 1 hour, and then alkylated with 50 mM iodacetamide at room temperature in the dark for 30 minutes. After centrifugation at 3000 rpm for 2 minutes, the supernatant was gently removed. The beads were washed with 25 mM ammonium bicarbonate three times, resuspended in 100 μL 25 mM ammonium bicarbonate, and incubated with 1 μg of MS-grade trypsin (1 μg/μL) at 37° C. for 18 hrs.
The beads were washed with 200 μL of 25 mM ammonium bicarbonate solution, then centrifuged at 12000 rpm for 2 minutes to collect the supernatant. The procedure was repeated 6 times, and the supernatants were combined to obtain sample 1 (peptides without probe modification). For GTP-O probe labeled samples, the beads were resuspended in 200 μL of 70% acetonitrile solution containing 1% trifluoroacetic acid, vortexed for 5 minutes, then centrifuged at 12000 rpm for 2 minutes to collect the supernatant. The procedure was repeated 5 times, and the supernatants were combined to obtain sample 2 (containing probe-modified peptides). For GTP-N probe labeled samples, the beads were resuspended in 100 μL of 10% formic acid, incubated on a rotary shaker at room temperature for 30 minutes, then centrifuged at 12000 rpm for 2 minutes to collect the supernatant. The procedure was repeated 3 times, and the supernatants were combined. Trifluoroacetic acid was added to a final concentration of 1%, and incubated at 37° C. for 30 minutes to obtain sample 2. The peptide solutions were dried with a centrifugal concentrator and desalted using C18 tips, then frozen at −80° C. until LC-MS/MS detection. Samples were dissolved in 20 μL of pure water, 4 μL of sample 1 and 8 μL of sample 2 were injected for analysis.
An EASY-nLC 1200 liquid chromatography coupled with a Q-Exactive Orbitrap mass spectrometer was employed for LC-MS/MS analysis. A homemade C18 capillary column (inner diameter 75 μm, column length 18 cm) packed with Reprosil-Pur120 C18-AQ (Dr. maisch, particle size […]) was utilized as the separation column. The precolumn (inner diameter 150 μm, column length 4 cm) was packed with Reprosil-Pur120 C18-AQ (Dr. maisch, particle size 5 μm,). The mobile phase A was 0.1% formic acid, while mobile phase B was 0.1% formic acid in 80% acetonitrile, and the flow rate was 300 nL/min. […]

Assay [4] addresses T1, ACTR3 (Homo sapiens, UniProt P61158).
T1 construct: the GTP-N probe was used for protein labeling of HEK 293T cell lysates; endogenous in cells; host or cells: HEK 293T cell lysate
In words: EHT 1864 competitive GTP-N probe labeling of HEK 293T cell lysates, LC-MS/MS. It counts as binding. The conditions noted are these: GTP-N probe 20 μM; EHT 1864 20, 40, 100, 200 μM. As for the experimental part:
(§1) Using the On-Beads digestion method, the GTP-N probe was used for protein labeling of HEK 293T cell lysates. For the competition experiments, a GTP-competitive inhibitor EHT 1864 was added before probe labeling to inhibit probe binding with targeted GTP-binding proteins. The final concentration of the probe was 20 μM, and EHT 1864 was used at concentrations of 20 μM, 40 μM, 100 μM, and 200 μM, respectively. The inhibitor was pre-incubated with cell lysates on ice for 10 minutes, followed by the GTP-N probe labeling, sample preparation, and LC-MS/MS analysis, same as in Section 1.3 of Example 3.

Assay [5] concerns the target T2, ACTR2 (Homo sapiens, UniProt P61160).
T2 construct: endogenous in cells; host or cells: HEK 293T cell lysate
The assay is described as above. The conditions noted are these: GTP-N probe 20 μM; EHT 1864 20, 40, 100, 200 μM. The format is binding. As to the method: as §1

For assay [6], the target named is T3, PLCG1 (Homo sapiens, UniProt P19174).
T3 construct: the GTP-N probe was used for protein labeling of HEK 293T cell lysates; endogenous in cells; host or cells: HEK 293T cell lysate
T3 sequence (P19174 1-1290): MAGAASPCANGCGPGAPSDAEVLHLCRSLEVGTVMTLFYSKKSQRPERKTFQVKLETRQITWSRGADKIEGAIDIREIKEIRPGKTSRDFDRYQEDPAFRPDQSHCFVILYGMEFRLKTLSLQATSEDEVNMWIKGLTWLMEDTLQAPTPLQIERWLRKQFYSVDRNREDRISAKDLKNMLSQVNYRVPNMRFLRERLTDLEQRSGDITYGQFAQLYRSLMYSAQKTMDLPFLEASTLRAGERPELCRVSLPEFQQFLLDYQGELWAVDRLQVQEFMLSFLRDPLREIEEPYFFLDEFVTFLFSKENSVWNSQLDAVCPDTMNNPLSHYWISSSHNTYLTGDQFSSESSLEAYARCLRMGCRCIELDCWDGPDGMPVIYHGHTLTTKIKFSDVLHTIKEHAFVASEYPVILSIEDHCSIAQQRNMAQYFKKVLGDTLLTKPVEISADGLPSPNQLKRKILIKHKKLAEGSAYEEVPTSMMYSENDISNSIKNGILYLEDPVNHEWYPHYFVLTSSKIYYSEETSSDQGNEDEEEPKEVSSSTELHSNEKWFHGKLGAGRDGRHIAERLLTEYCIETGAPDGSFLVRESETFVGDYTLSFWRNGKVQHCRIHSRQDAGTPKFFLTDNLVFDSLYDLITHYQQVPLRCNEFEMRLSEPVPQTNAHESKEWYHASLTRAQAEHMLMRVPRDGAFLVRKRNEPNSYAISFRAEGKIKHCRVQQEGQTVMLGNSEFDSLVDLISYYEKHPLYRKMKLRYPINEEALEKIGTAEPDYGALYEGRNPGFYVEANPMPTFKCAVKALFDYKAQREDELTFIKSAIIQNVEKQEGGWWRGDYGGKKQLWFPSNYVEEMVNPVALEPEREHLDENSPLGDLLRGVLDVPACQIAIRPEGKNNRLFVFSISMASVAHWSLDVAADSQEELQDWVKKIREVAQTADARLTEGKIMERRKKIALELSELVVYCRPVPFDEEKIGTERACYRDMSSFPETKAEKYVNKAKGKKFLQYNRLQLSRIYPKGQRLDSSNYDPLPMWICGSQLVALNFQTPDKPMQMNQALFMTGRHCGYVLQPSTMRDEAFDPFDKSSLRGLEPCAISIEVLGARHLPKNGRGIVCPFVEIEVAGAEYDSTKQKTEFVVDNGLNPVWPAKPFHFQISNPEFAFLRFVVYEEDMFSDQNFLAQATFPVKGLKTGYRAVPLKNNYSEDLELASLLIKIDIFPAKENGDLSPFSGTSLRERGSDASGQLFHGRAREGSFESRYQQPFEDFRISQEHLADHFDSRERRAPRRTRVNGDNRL
Described as above. It counts as binding. The conditions noted are these: GTP-N probe 20 μM; EHT 1864 20, 40, 100, 200 μM. As to the method:
as §1

The mark [7] stands for this setting: three biological replicates, 0.1 mM probe, control probe = GTP-ctrl probe.

The source of these data is patent US20240400604A1, “NUCLEOSIDE TRIPHOSPHATE PHOTOAFFINITY PROBE, METHOD FOR PREPARING SAME, AND APPLICATIONS THEREOF” (SHANDONG UNIVERSITY, priority 2023, published 2024).

For the molecule `Nc1ncnc2c1ncn2[C@@H]1O[C@H](COP(=O)(O)O)[C@@H](O)[C@H]1O` [AMP, reference compound], the “competition effect on ATP-N probe labeling” value in assay [1] was “not significant”.

`Nc1nc2c(ncn2[C@@H]2O[C@H](COP(=O)([O-])[O-])[C@@H](O)[C@H]2O)c(=O)[nH]1.[Na+].[Na+]` [GMP, guanosine 5′-monophosphate disodium salt]: the “competition effect on probe labeling (fluorescence of labeled bands)” value (from here on “competition effect on probe labeling”) in assay [2] was “non-specific competition”.

Consider `C#CCCC1(CCOP(=O)(O)OP(=O)(O)OP(=O)(O)OC[C@H]2O[C@@H](n3cnc4c(=O)[nH]c(N)nc43)C(O)[C@H]2O)N=N1` (stereo partly shown) [GTP-O probe], for which the “probe-modified sites on labeled proteins” value in assay [3] (LC-MS/MS of sample 2 (probe-modified peptides)) was “not detected”. In assay [3] (setting [7]), this molecule displayed a GTP-binding proteins identified of 95 and a total proteins identified of 1808.

Regarding `Nc1nc2c(ncn2[C@@H]2O[C@H](COP(=O)(O)OP(=O)(O)OP(=O)(O)O)[C@@H](O)[C@H]2O)c(=O)[nH]1` [GTP, guanosine triphosphate], the “competition effect on probe labeling” value in assay [2] is reported as “significantly decrease the fluorescence intensity of several labeled proteins bands”.

As to `Nc1ncnc2c1ncn2[C@@H]1O[C@H](COP(=O)(O)OP(=O)(O)OP(=O)(O)O)[C@@H](O)[C@H]1O` [ATP, adenosine triphosphate], the “competition effect on probe labeling” value in assay [2] was “non-specific competition”.

As for `O=c1cc(CN2CCOCC2)occ1OCCCCCSc1ccnc2cc(C(F)(F)F)ccc12` [EHT 1864], the “protein intensity of ACTR3 in competition groups” value in assay [4] is reported as “overall decreased protein intensities”. Further, the “protein intensity of ACTR2 in competition groups” value in assay [5] is “overall decreased protein intensities”. Also, the “protein intensity of PLCG1 in competition groups” value in assay [6] was “overall decreased protein intensities”.
